Measured values reported in patent publication US20050256302A1, “Novel peptides having camp producing activity” (Japan Science and Technology Agency, priority 2002, published 2005).
Where a SMILES comes first, the peptide text is derived from it. Bridges are numbered along the chain shown (N, C = ends).

Tests used:
[1] = biological target: T1, Pig calcitonin receptor (CTR) (Sus scrofa, UniProt P25117); assay: Incorporation of sodium ion (22Na) in OK cells expressing CTR; assay type: cell-based; conditions: CTR expressed in OK cells
T1 construct: expressed in transfected cells; host or cells: COS-7 (given as rhesus monkey renal cells), vector pcDNA 3.1
T1 sequence (P25117 30-498): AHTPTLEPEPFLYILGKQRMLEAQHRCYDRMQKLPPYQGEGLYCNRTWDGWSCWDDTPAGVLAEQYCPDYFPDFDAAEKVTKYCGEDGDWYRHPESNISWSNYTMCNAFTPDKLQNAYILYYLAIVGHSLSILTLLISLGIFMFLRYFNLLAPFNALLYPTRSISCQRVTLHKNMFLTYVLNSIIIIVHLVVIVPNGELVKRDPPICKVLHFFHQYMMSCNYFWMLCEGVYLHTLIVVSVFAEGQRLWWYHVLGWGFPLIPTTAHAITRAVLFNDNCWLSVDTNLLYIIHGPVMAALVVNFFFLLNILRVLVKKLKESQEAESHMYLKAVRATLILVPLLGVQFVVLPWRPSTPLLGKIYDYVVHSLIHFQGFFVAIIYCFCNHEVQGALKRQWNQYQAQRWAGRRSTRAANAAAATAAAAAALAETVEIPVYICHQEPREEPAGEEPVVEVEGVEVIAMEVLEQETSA
Procedure: Pig calcitonin receptor (CTR) was introduced into a mammalian expression vector pcDNA 3.1, expressed in rhesus monkey renal cells (COS-7) and production amount of cAMP by stimulation of CRSP was measured by radioimmunoassay. Similarly, CTR was expressed in opossum renal cells (OK cells) and production amount of cAMP by stimulation of CRSP was measured by radioimmunoassay while incorporation of sodium ion was measured by measuring the incorporation of sodium chloride having radioactivity (^22Na) by a gamma-counter. The results are shown in FIG. 10 (changes in cAMP productivity by CRSP stimulation in cells (COS-7) where calcitonin receptor was expressed in a genetic engineering manner), FIG. 11 (changes in cAMP productivity in opossum renal epithelial cells where pig calcitonin receptor (CTR) was expressed) and FIG. 12 (changes in incorporation of sodium ion in opossum renal epithelial cells where pig calcitonin receptor (CTR) was expressed).
Similarly, CTR was expressed in opossum renal cells (OK cells) and production amount of cAMP by CRSP stimulation was measured by radioimmunoassay while incorporation of sodium ion was measured by incorporation of radioactive sodium chloride (^22Na) using a gamma-counter.

[2] = biological target: T1, Pig calcitonin receptor (CTR); assay: cAMP production in COS-7 cells expressing pig calcitonin receptor; assay type: cell-based
Procedure: Pig calcitonin receptor (CTR) was introduced into a mammalian expression vector pcDNA 3.1, expressed in rhesus monkey renal cells (COS-7) and production amount of cAMP by stimulation of CRSP was measured by radioimmunoassay. Similarly, CTR was expressed in opossum renal cells (OK cells) and production amount of cAMP by stimulation of CRSP was measured by radioimmunoassay while incorporation of sodium ion was measured by measuring the incorporation of sodium chloride having radioactivity (^22Na) by a gamma-counter.
Pig calcitonin receptor (CTR) was introduced into mammalian expression vector pcDNA 3.1 and then expressed in rhesus monkey renal cells (COS-7) whereupon production amount of cAMP by CRSP stimulation was measured by radioimmunoassay.
Pig calcitonin receptor (CTR) was introduced into a mammalian expression vector pcDNA 3.1 and expressed in rhesus monkey renal cells (COS-7) and production amount of cAMP by CRSP stimulation was measured by radioimmunoassay.
Pig calcitonin receptor (CTR) was introduced into a mammalian expression vector pcDNA 3.1, then expressed in rhesus monkey renal cells (COS-7) and production amount of cAMP by CRSP or CRSP-Gly stimulation was measured-by radioimmunoassay.

[3] = tested on: LLC-PK1 cells; assay: cAMP production in LLC-PK1 cells (radioimmunoassay); assay type: cell-based, pig; conditions: ratio of ED50
Procedure: CRSP dissolved in DMEM was added to a medium for LLC-PK1 cells and amount of cAMP secreted therefrom was quantified by means of radioimmunoassay using a cAMP-specific antibody.
LLC-PK1 cells were incubated in a culture medium (a Dulbecco-modified Eagle medium (DMEM) containing 10% of fetal calf serum (FCS)), CRSP dissolved in DMEM containing 0.05% of bovine serum albumin was substituted for a culture medium for the cells after two days, incubation was conducted for 30 minutes, the medium was recovered and amount of the secreted cAMP was quantified by radioimmunoassay using a cAMP-specific antibody.

Question: `CSCC[C@H](NC(=O)[C@H](CCCCN)NC(=O)[C@@H](NC(=O)[C@@H]1CCCN1C(=O)[C@H](CC(C)C)NC(=O)[C@H](CC(C)C)NC(=O)[C@H](CC(N)=O)NC(=O)[C@H](CO)NC(=O)[C@H](CCCNC(=N)N)NC(=O)[C@@H](NC(=O)[C@H](CCSC)NC(=O)[C@H](CO)NC(=O)CNC(=O)[C@H](CO)NC(=O)[C@H](CCCNC(=N)N)NC(=O)[C@H](CO)NC(=O)[C@H](CC(C)C)NC(=O)[C@H](CC(C)C)NC(=O)CNC(=O)[C@@H](NC(=O)[C@H](CC(C)C)NC(=O)[C@H](CCCNC(=N)N)NC(=O)[C@H](Cc1c[nH]cn1)NC(=O)[C@@H](NC(=O)[C@H](CCSC)NC(=O)[C@@H]1CSSC[C@H](NC(=O)[C@@H](N)CO)C(=O)N[C@@H](CC(N)=O)C(=O)N[C@@H]([C@@H](C)O)C(=O)N[C@@H](C)C(=O)N[C@@H]([C@@H](C)O)C(=O)N1)[C@@H](C)O)C(C)C)C(C)C)[C@@H](C)O)C(=O)NCC(=O)N[C@@H](Cc1ccccc1)C(=O)N[C@@H](CCCCN)C(=O)N[C@H](C(=O)N[C@@H](Cc1ccccc1)C(=O)NCC(N)=O)C(C)C` [CRSP] (H-SCNTATCMTHRLVGLLSRSGSMVRSNLLPTKMGFKVFG-NH2; disulfide 2-7) was tested. Which “amyloride-sensitive Na/H co-transporter” value [1] did it give?
Answer: activated

Question: What about the “incorporation of sodium into cells” value [1] of the same molecule?
Answer: promoted

Question: And the “cAMP productivity, CRSP compared with CRSP-Gly” value ([2]; CTR expressed in COS-7)?
Answer: nearly the same cAMP productivity

Question: What about the “activity stronger than pig calcitonin” value ([2]; CTR expressed in COS-7, ratio of ED50) of the same molecule?
Answer: about 350 fold

Question: What about the EC50 ([2]; CTR expressed in COS-7, read-out: ED50, increase of intracellular adenylyl cyclase activity (cAMP production)) of the same molecule?
Answer: ~200 pM

Question: What about the “activity stronger than pig CGRP” value [3] of the same molecule?
Answer: about 40 fold

Question: And the “activity stronger than pig calcitonin” value [3]?
Answer: about 6 fold
